Test: method code SF, from Hansch, C. & Leo, A. (1987). Log P database [Dataset]. Pomona College Medicinal Chemistry Project.
Work on `CCCOCCC(=O)N(C)c1ccc(S(=O)(=O)N(C)C)cc1` yielded a logP of 1.26. Compound `OCC(O)COc1ccccc1` (stereo not drawn) has a logP of 0.7. `CCC1(C)CCC(=O)NC1=O` (stereo not drawn) showed a logP of 0.23. With `COc1ccccc1C=CC(=O)OCCOc1ccc(C=O)cc1OC` the logP was 3.65. Work on `CC(C)=NO` yielded a logP of 0.12. Work on `CN(c1ccccc1)S(C)(=O)=O` yielded a logP of 1.02. In the case of `Nc1ncnc2c1ncn2[C@@H]1O[C@H](CO)[C@@H](O)[C@@H]1O`, the logP is reported as -1.11. In the case of `CC1=Nc2c(Br)cc(Cl)cc2S(=O)(=O)N1`, the logP is reported as 1.65. `CCCCC1=Nc2ccc(Cl)cc2S(=O)(=O)N1` showed a logP of 2.52. `CCCC(=O)OCC(O)CO` (stereo not drawn) showed a logP of -0.17. `COC[C@H]1O[C@@H](O)[C@H](NC(=O)N(CCCl)N=O)[C@@H](OC)[C@@H]1OC` gave a logP of 0.8. Work on `Cc1ccc2[nH]c(C(O)C(O)c3nc4cc(C)ccc4[nH]3)nc2c1` (stereo not drawn) yielded a logP of 1.27. With `Cc1c(Cl)c(Cl)c(Cl)c(Cl)c1Cl` the logP was 5.62. Compound `COc1cccc(OC)n1` has a logP of 2.3. Compound `CCOCCOC(=O)C(C#N)=C(CC)Nc1ccc([N+](=O)[O-])cc1` has a logP of 2.6. Work on `Cc1ccsc1` yielded a logP of 2.34. Work on `OC(c1ccccc1)(c1ccccc1)c1ccccc1` yielded a logP of 3.68. `C#CCCC(C)=O` showed a logP of 0.58. In the case of `Cc1ccc2c(ccc[n+]2[O-])c1`, the logP is reported as 0.95. In the case of `CC(C)CO`, the logP is reported as 0.65. Work on `O=NN(CCCl)C(=O)NC12CC3CC(CC(C3)C1)C2` yielded a logP of 3.56. `C=C(C)C1Cc2c(ccc3c2OC2COc4cc(OC)c(OC)cc4C2C3=O)O1` (stereo not drawn) gave a logP of 4.1. Compound `CNc1cccc2ccccc12` has a logP of 2.88. Compound `CCc1ccco1` has a logP of 2.4. For `CC1=Nc2ccc(S(=O)(=O)N(C)C)cc2S(=O)(=O)N1`, the logP was 0.32. With `CCCNCCC` the logP was 1.73. In the case of `CC=NO`, the logP is reported as -0.13. For `NCCc1c[nH]c2ccc(O)cc12`, the logP was 0.21. In the case of `COc1cc(C=NOC(=O)COc2ccccc2)ccc1OCCO`, the logP is reported as 2.1. For `O=CNc1nccs1`, the logP was 0.54. Work on `CN(C)C(=O)COc1ccccc1` yielded a logP of 0.78. In the case of `CNC(=O)Oc1cc(C)c(C)cc1C`, the logP is reported as 2.52. `OC1OC[C@H](O)[C@H](O)[C@H]1O` (stereo partly drawn) showed a logP of -3.02. In the case of `O=[N+]([O-])c1ccsc1`, the logP is reported as 1.55. For `CCOC(=O)C(=Cc1ccccc1C)C(=O)OCC`, the logP was 3.22. With `CC(C)(C)c1ccccc1` the logP was 4.11. In the case of `CCC1(CC)OC(=O)c2ccccc21`, the logP is reported as 2.69. With `Cc1cccc(OC(=O)CNC(=O)c2ccccc2)c1` the logP was 2.72. `O=Nc1ccc(O)cc1` showed a logP of 1.29. With `c1ccc(-n2cnnn2)cc1` the logP was 1.09. In the case of `COc1cccc2c1C(=O)c1c(O)c3c(c(O)c1C2=O)CC(O)(C(=O)CN1CCOCC1)CC3OC1CC(N)C(O)C(C)O1` (stereo not drawn), the logP is reported as 0.23. `c1ccc2c(c1)OCO2` gave a logP of 2.08. With `CNc1ccc(S(=O)(=O)N(C)C)cc1` the logP was 1.43. Compound `CCOC(=Cc1ccccc1)C(=O)NC(C)CC` (stereo not drawn) has a logP of 3.2. `CCC1OC(=O)C(C)C(OC2CC(C)(OC)C(O)C(C)O2)C(C)C(OC2OC(C)CC(N(C)C)C2O)C2(C)CC(C)C3(OC(=O)OC(C3C)C1(C)O)O2` (stereo not drawn) showed a logP of 3.11. `O=[N+]([O-])c1ccc2[nH]c(CCCCCc3nc4cc([N+](=O)[O-])ccc4[nH]3)nc2c1` gave a logP of 1.97. `CC1(C)OC2CC3C4CC(F)C5=CC(=O)C(Cl)=CC5(C)C4(F)C(O)CC3(C)C2(C(=O)CO)O1` (stereo not drawn) gave a logP of 2.99. For `NC(=O)Cc1ccsc1`, the logP was 0.31. With `FC(F)OC(Cl)C(F)(F)F` (stereo not drawn) the logP was 2.06. Compound `Nc1ccccc1S` has a logP of 1.43. With `CCOC(=O)C(=Cc1ccccc1)C(=O)OCC` the logP was 3.13. `NC(=O)c1ccc(O)cc1` showed a logP of 0.33. For `NC(=O)c1ccc(C(F)(F)F)cc1`, the logP was 1.71. Compound `O=NN(CCCl)C(=O)NC(C(=O)O)C1CCCCC1` (stereo not drawn) has a logP of -0.63. Work on `CNP(=O)(OC)Oc1ccc(C(C)(C)C)cc1` (stereo not drawn) yielded a logP of 2.71. `OCCCC(F)(F)F` gave a logP of 0.9. For `CC(=O)Nc1cccc(N(C)C)c1`, the logP was 1.29. With `Cc1ccc(/C=C/[N+](=O)[O-])cc1` the logP was 2.66. For `CC(=O)Oc1ccccc1[N+](=O)[O-]`, the logP was 1.55. With `CC1CCCN(N=O)C1=O` (stereo not drawn) the logP was -0.66. Work on `Clc1ccc2[nH]c(CCCCCCc3nc4cc(Cl)ccc4[nH]3)nc2c1` yielded a logP of 1.38. For `CCC1=Nc2ccc(Cl)cc2S(=O)(=O)N1`, the logP was 1.62. `[O-][N+](=Cc1c(Cl)cccc1Cl)c1ccccc1` showed a logP of 2.16. With `O=C1NC(c2cccc3ccccc23)Nc2ccccc21` (stereo not drawn) the logP was 2.96. In the case of `CCCCC`, the logP is reported as 3.23. In the case of `CCCCCC(=O)Nc1ccccc1`, the logP is reported as 3.28. Work on `Nc1ncco1` yielded a logP of -0.18. `c1cn[nH]c1` showed a logP of 0.13. Compound `CCCCCCC1CCC(=O)O1` (stereo not drawn) has a logP of 2.72. `CNP(=O)(OC)Oc1ccc(SC)cc1` (stereo not drawn) gave a logP of 1.81. Work on `CC(=NNC(=S)N(C)C)c1cc(C)ccc1O` yielded a logP of 2.26. `CCC1(C(C)CC(C)O)C(=O)NC(=O)NC1=O` (stereo not drawn) showed a logP of 0.35. For `O=C(CNC(=O)c1ccccc1)Oc1cccc(F)c1`, the logP was 2.58. `Nc1cccc2cc3ccccc3nc12` gave a logP of 3.26. `NS(=O)(=O)c1ccc(C(=O)c2ccncc2)cc1` showed a logP of 0.56. Work on `CCS(=O)(=O)c1ccc(S(N)(=O)=O)c2ccccc12` yielded a logP of 1.24. `O=S1(=O)NC(C2CCC2)=Nc2ccc(Cl)cc21` gave a logP of 2.24. With `O=C(C(=O)c1ccccc1)c1ccccc1` the logP was 3.38.

— the SangsterLogP compilation
